Assay results reported in US20080118437A1, “Diagnosis and treatment O prostate cancer” (Regents of the University of Michigan, priority 2006, published 2008).

How the values were obtained:
[1] = system: PC-3 cells; assay: Fluorescence-based migration assay toward hrMCP-1; format: cell-based, human; conditions: for PC-3 cell migration, mean fluoresence±SD: 24 hours
Protocol: (§1) Flouresence-based Migration Assay—Cell migration was assessed using the Innocyte Cell Migration Assay (Calbiochem, Inc.) following the manufacturer's instructions. Briefly, increasing concentrations of MCP-1 (1-100 ng/mL) in the presence and absence of CCR2 inhibitors or neutralizing antibodies were added to the lower chamber of a 96 well plate. Cells were harvested by 0.5 μM EDTA release and resuspended at 2.5×10^5 cells/mL in serum free media. 2.5×10^4 cells were added to the upper chamber and allowed to migrate through the membrane with 8 μm pores for 24 hours at 37° C. and 5% CO2 atmosphere. Cells that migrated through the membrane were detached and labeled with Calcein AM and fluorescence was measured using fluorescent plate reader with excitation wavelength of 485 nm and emission wavelength of 520 nm. The experiments were repeated twice and each conditioned was performed in quadruplicate in each experiment.

[2] = system: VCaP cells; assay: Fluorescence-based migration assay toward hrMCP-1; format: cell-based, human; conditions: for VCaP cell migration, mean fluoresence±SD: 24 hours
Protocol: as §1

[3] = system: PC-3 cells; assay: Immunofluorescence of actin rearrangement and lamellipodial formation; format: cell-based, human
Protocol: Immunofluorescence-PC-3 cells were plated on glass coverslips and serum starved for 2 hours prior to stimulation. Cells were stimulated with MCP-1 (100 ng/mL) for 30 min in the presence or absence of identified inhibitors. Stimulation with SDF-1 (200 ng/mL) for 30 min was used as a positive control. Cells were fixed in 3.7% paraformaldehyde, methanol-free for 10 min at room temperature then permeablized with 0.5% Triton X-100 for 5 min at room temperature. Cells were rinsed twice with PBS and incubated for 30 minutes at room temperature with 3% bovine serum albumin (BSA) in PBS+0.05% Tween 20 to prepare cells for staining. Cells were incubated with Phalloidin AlexaFluor S68 (Molecular Probes, Inc.) at a 1:40 dilution in BSA solution to label actin. Cells were washed and mounted on coverslips with Pro-Long Antifade containing DAPI (Molecular Probes, Inc.) following manufacturer's instructions. Immunofluoresence was visualized using a multi-photon laser scanning microscope (MPLSM), consisting of a Mai Tai Broadband Ti:Sapphire laser, tuneable between 710-990 nm and a modified Olympus Fluoview 300 confocal microscope with long working distance water immersion IR objectives. Images were captured with a 60× objective (zoom ×2), 800 nm excitation wavelength, 605 nm and 520 nm centered emmission filters.

[4] = system: PC-3Luc cells; assay: Bioluminescent in vivo model of metastasis (Example 4, antibodies and/or docetaxel); set-up: species or system male SCID mice
Protocol: Bioluminescent imaging of PC-3Luc was preformed as previously described through The University of Michigan Small Animal Imaging Resource facility (MSAIR) (Loberg et al., 2006. Neoplasia. 8:578-586). Briefly, PC-3Luc cells were introduced into male SCID mice (5-6 wks of age) by intracardiac injections. Mice were serially imaged weekly for up to 12 weeks using a CCD IVIS system using a 50 mm lens (Xenogen Corp, Alameda, Calif.) and the results were analyzed using LIVING IMAGE software (Xenogen Corp.). Mice were separated into groups and treatment began at week 2 post-intracardiac injection and mice received 2 mg/Kg antibody twice weekly by intraperitoneal (i.p.) injection (for up to eight weeks) and/or 40 mg/Kg Taxotere i.p. injection once per week for three weeks. Mice were injected with luciferin (40 mg/mL) intraperitoneally and ventral images were acquired 15 min postinjection under 1.75% isofluorane/air anesthesia. Total tumor burden of each animal was calculated using regions of interest (ROIs) that encompassed the entire animal. Animals were sacrificed after week 6 image and individual organs were harvested and immediately placed in formalin.

[5] = system: HBME, HAEC and HDVMEC cells; assay: CCL2 synthesis by endothelial cells stimulated with PTHrP; format: cell-based, human; conditions: PTHrP 10 nM
Protocol: To determine the role of CCL2 in the development of prostate cancer-bone metastasis the level of CCL2 was analyzed by ELISA. […]

[6] = system: MC3T3-E1 subclone 4 (MC-4) OB cells; assay: CCL2 ELISA of osteoblast cells stimulated with PTHrP; format: cell-based, mouse; conditions: PTHrP 10 nM; day 7 and day 14 after induced differentiation
Protocol: VCaP cells were obtained from a lumbar vertebral metastatic lesion through the Rapid Autopsy program at the University of Michigan (Korenchuk et al., 2001; 2: 163-168; Loberg et al., Urol. One. 2006; 24:161-168). Cells were cultured in Dulbecco's Modified Eagle Medium supplemented with 10% Fetal Bovine Serum and 1% antibiotic/antimicotic and incubated at 37° C. PC3 prostate cancer cells were obtained from the American Type Culture Collection (Manassas, Va.). Cells were cultured in RPMI-1640 with L-Glutamine (Cambrex Bioproducts) and supplemented with 10% Fetal Bovine Serum and 1% antibiotic/antimicotic. Cells were incubated at 37° C. and subcultured according to ATCC specifications. MC3T3-E1 subclone 4 cells (MC-4) with high osteoblast differentiation potential were maintained and passaged every 4-5 days as previously described. Briefly, cells were grown in AMEM (Gibco) containing 100 units/ml penicillin and streptomycin and 10% FBS. MC3T3 cells were plated at 40,000-50,000 cells/cm2, and differentiation was induced with the addition of ascorbic acid (50 μg/ml) for 7 days. The culture medium was changed at days 1, 3, 5, and 7. […]
A mouse CCL2 specific ELISA kit was purchased from BD Biosciences (San Diego, Calif.) to measure the protein level of CCL2 in cell culture media. […] Values were calculated from standard curves set up for each assay. […]

[7] = system: primary mouse calvaria osteoblasts; assay: CCL2 ELISA of primary osteoblasts stimulated with PTHrP; format: cell-based; conditions: maximal response at 2 hours post-stimulation
Protocol: Primary mouse calvarial cells were isolated as previously described. Briefly, calvaria of newborn mice at day 4 were dissected, isolated, and subjected to sequential digestions in collagenase A (2 mg/ml) and 0.25% trypsin for 20, 40, and 90 minutes. Cells from the third digest were washed, counted, and plated in αMEM with 10% FBS containing 100 U/ml of penicillin and streptomycin. Primary cultures were used without passage. For differentiation, both MC-4 and primary cells were induced to differentiate and form mineralized matrix with the addition of ascorbic acid (50 μg/ml) and β-glycerophosphate (10 mM) with media replacement (every 2 days). In proliferation phase, MC-4 cells were serum staved for 24 h before addition of PTHrP or vehicle for indicated time. Otherwise, cells were treated with PTHrP or vehicle for indicated time without serum starvation.
A mouse CCL2 specific ELISA kit was purchased from BD Biosciences (San Diego, Calif.) to measure the protein level of CCL2 in cell culture media. Assays were performed as recommended by the manufacturer to determine levels of secreted CCL2 in MC-4 or primary cell culture media. Values were calculated from standard curves set up for each assay. The data are based on a triplicate experiments performed independently. Data are shown as mean +SEM in the figures.

[8] = in vivo; cited from earlier work
[9] = system: PC-3 cells; assay: WST-1 proliferation assay with MCP-1 with or without LY294002; format: cell-based, human; conditions: increasing concentrations, 24-96 hours
Protocol: (§2) Proliferation Assay-Cells were seeded at a density of 4×10^3 cells/well in a six well plate in regular media. Twenty four hours after seeding the media was changed with serum free media with increasing concentrations of MCP-1(1-100 ng/mL) in the presence of absence of LY294002 (1 μM). Cell growth was determined at 24, 48, 72, and 96 hours after seeding using the WST-1 assay (Pierce Biotech) following the manufacturer's instructions.

[10] = system: VCaP cells; assay: as above; format: cell-based, human; conditions: increasing concentrations, 24-96 hours
Protocol: as §2

[11] = system: LNCaP cells; assay: WST-1 proliferation assay with MCP-1; format: cell-based, human; conditions: compared to vehicle treated controls
Protocol: as §2

[12] = system: PC-3 cells; assay: Western blot of MCP-1 induced signaling; format: cell-based, human; conditions: MCP-1 100 ng/mL
Protocol: (§3) Western Blot-Cells were lysed in RIPA buffer (50 mM Tris-HCl, pH 7.4, 1% NP-40, 150 mM NaCl, 1 mM EDTA, 1 mM PMSF, 1 mM Na3VO4, 1 mM NaF, 1 uM okadaic acid and 1 ug/mL aprotinin, leupeptin and pepstatin). Proteins were separated under reducing conditions by SDS-PAGE and transferred onto nitrocellulose membrane. The membranes were blocked with 5% milk in TBST (0.1% Tween in TBS) for 1 hour at room temperature. They were incubated overnight at 4° C. with primary antibodies. Membranes were washed 3 times prior to incubation with HRP-conjugated secondary antibodies (Cell Signaling, Beverly, Mass.) for 1 hour at room temperature. Protein expression was visualized by ECL chemiluminescent (Promega, Madison, Wis.) and quantitated using Image J software (NCl, Bethesda, Md.).

[13] = system: VCaP cells; assay: Western blot of MCP-1 induced signaling; format: cell-based, human; conditions: MCP-1 100 ng/mL, time dependent, maximal at 30 min; dose-dependent 0.1-100 ng/mL
Protocol: as §3

[14] = system: PC-3Luc cells; assay: WST-1 proliferation assay with hrCCL2 and anti-CCL2 antibodies; format: cell-based, human; conditions: 72 hours, antibodies 30 μg/mL
Protocol: Cells were seeded at a density of 1×10^5 cells/ml for PC-3Luc cells in a 96 well plate in RPMI+10% FBS (FCS is mentioned in previous section). Twenty-four hours after seeding, media was changed to either serum-free RPMI or RPMI+10% FBS. Cell growth was determined 72 hours later using the WST-1 assay (Pierce Biotech, Inc.) following the manufacturer's instructions.

With O=C1Nc2ccccc2C2(CCN(CCc3ccc(C(F)(F)F)cc3)CC2)O1 [RS-102895] the “effect on MCP-1 induced dose dependent migration of PC-3 cells” value ([1]; MCP-1 1-100 ng/mL) was “attenuated”, the “effect on MCP-1 induced dose dependent migration of VCaP cells” value ([2]; MCP-1 1-100 ng/mL) was “attenuated” and the “effect on MCP-1 induced actin rearrangement and lamellipodial formation” value ([3]; co-incubation with MCP-1 100 ng/mL, RS-102895 1 μM) was “did not prevent actin rearrangement and lamellipodial formation”.
In the case of CC(=O)O[C@@]12CO[C@@H]1C[C@H](O)[C@@]1(C)C(=O)[C@H](O)C3=C(C)[C@@H](OC(=O)[C@H](O)[C@@H](NC(=O)OC(C)(C)C)c4ccccc4)C[C@@](O)([C@@H](OC(=O)c4ccccc4)[C@H]21)C3(C)C [docetaxel, (2R,3S)-N-carboxy-3-phenylisoserine, N-tert-butyl ester, 13-ester with 5b-20-epoxy-12a,4,7b,10b,13a-hexahydroxytax-11-en-9-one 4-acetate 2-benzoate, trihydrate], the “animals of group counted at Wk 6 (tumor regression, Table 2)” value ([4]; Wk 6 = First week after cessation of Taxotere) is reported as 2 of 9, the “animals of group counted at Wk 9 (tumor regression, Table 2)” value ([4]; Wk 9 = First week after cessation of Antibodies) is reported as 1 of 9 and the “total tumor burden at Day 35” value ([4]; antibodies 2 mg/Kg i.p. twice weekly, docetaxel 40 mg/Kg i.p.) is reported as 3.19 % of PBS-treated animals. The “tumor burden during and after therapy (docetaxel, combination, antibody maintenance)” value ([4]; docetaxel 40 mg/Kg i.p. qw for 3 weeks, antibodies 2 mg/Kg i.p. twice weekly until week 8) was “decrease in tumor burden while receiving therapy”.
In the case of “PTHrP: Human Parathyroid hormone related protein (PTHrP)-(1-34) from Bachem”, the “synthesis of CCL2” value [5] is reported as “increased their respective synthesis of CCL2”, the CCL2 expression [6] is reported as “rapidly increased within 2 hours” and the CCL2 expression [7] is reported as “increased CCL2 expression”.
For “VEGF TRAPR1R2: VEGF TRAP Fc fusion protein (Holash et al.)”, the AUC [8] is listed as 36.28 µg·days/mL and the Cmax [8] is listed as 16000 ng/mL.
In the case of “hrMCP-1: Human recombinant MCP-1 (CC chemokine ligand 2) from Chemicon International”, the “PC-3 cell migration, mean fluoresence±SD” value ([1]; hrMCP-1 1 ng/mL) is reported as 83.53±2.981, the “PC-3 cell migration, mean fluoresence±SD” value ([1]; hrMCP-1 10 ng/mL) is reported as 142.2±2.678 and the “PC-3 cell migration, mean fluoresence±SD” value ([1]; hrMCP-1 100 ng/mL) is reported as 248.1±0.761. For the same compound, the “VCaP cell migration, mean fluoresence±SD” value ([2]; hrMCP-1 1 ng/mL) was 130.6±2.145, the “VCaP cell migration, mean fluoresence±SD” value ([2]; hrMCP-1 10 ng/mL) was 176.1±9.051 and the “VCaP cell migration, mean fluoresence±SD” value ([2]; hrMCP-1 100 ng/mL) was 296.5±2.681. The “proliferation in response to MCP-1” value [9] was “enhanced proliferation”, the “proliferation in response to MCP-1” value [10] was “enhanced proliferation” and the “proliferation in response to MCP-1” value [11] was “no effect”. For the same compound, the GSK3α/β phosphorylation [12] was “no effect”, the “p70 S6 kinase phosphorylation” value [12] was “induced p70 S6 kinase phosphorylation” and the “Akt phosphorylation by immunoblot” value ([12]; time dependent, maximal at 30 min, dose-dependent 0.1-100 ng/mL) was “induced Akt phosphorylation”. The “Akt phosphorylation by immunoblot” value [13] was “induced Akt phosphorylation”, the “actin cytoskeleton: finger-like projections and lamellipodia” value ([3]; MCP-1 100 ng/mL, 30 min, compared to control cells) was “increased formation” and the “cell viability (WST-1) as a measure of proliferation, mean ±SD” value ([14]; CCL2 10 ng/mL) was 136.2±7.81. The “cell viability (WST-1) as a measure of proliferation, mean ±SD” value ([14]; CCL2 100 ng/mL) was 168.15±5.44.
